One compound from US9266871B2, “Trifluoromethyl-substituted fused pyrimidines and their use” (BAYER PHARMA AKTIENGESELLSCHAFT, priority 2013, dated 2016) can be followed below.

This data set can be described thus: Pharmacokinetic parameters following intravenous and oral administration. The format is in vivo, rat. Particulars: rats, i.v. 0.3 mg/kg and oral 1 mg/kg. An excerpt: • Klaus Witte, Kai Hu, Johanna Swiatek, Claudia Müssig, Georg Ertl and Björn Lemmer: Experimental heart failure in rats: effects on cardiovascular circadian rhythms and on myocardial β-adrenergic signaling. Cardiovasc Res 47 (2): […], 2000; Kozo Okamoto: Spontaneous hypertension in rats. Int Rev Exp Pathol 7: 227-270, 1969; Maarten van den Buuse: Circadian Rhythms of Blood Pressure, Heart Rate, and Locomotor Activity in Spontaneously Hypertensive Rats as Measured With Radio-Telemetry. Physiology & Behavior 55(4): 783-787, 1994 B-4. Determination of Pharmacokinetic Parameters Following Intravenous and Oral Administration
The pharmacokinetic parameters of the compounds of the formula (I) according to the invention are determined in male CD-1 mice, male Wistar rats and female beagles. Intravenous administration in the case of mice and rats is effected by means of a species-specific plasma/DMSO formulation, and in the case of dogs by means of a water/PEG400/ethanol formulation. In all species, oral administration of the dissolved substance is performed via gavage, based on a water/PEG400/ethanol formulation. The removal of blood from rats is simplified by inserting a silicone catheter into the right Vena jugularis externa prior to substance administration. The operation is effected at least one day prior to the experiment with isofluran anaesthesia and administration of an analgesic ([…]/rimadyl (3/1) 0.1 ml s.c.). The blood is taken (generally more than 10 time points) within a time window including terminal time points of at least 24 to a maximum of 72 hours after substance administration. The blood is removed into heparinized tubes. The blood plasma is then obtained by centrifugation; if required, it can be stored at −20° C. until further processing.
An internal standard (which may also be a chemically unrelated substance) is added to the samples of the compounds of the formula (I) according to the invention, calibration samples and qualifiers, and this is followed by protein precipitation using excess acetonitrile. Addition of a buffer solution matched to the LC conditions, and subsequent vortexing, is followed by centrifugation at 1000 g. The supernatant is analysed by means of LC-MS/MS using C18 reversed-phase columns and variable mobile phase mixtures. The substances are quantified via the peak heights or areas from extracted ion chromatograms of specific selected ion monitoring experiments.
The plasma concentration/time plots determined are used to calculate the pharmacokinetic parameters such as AUC (area under the curve), Cmax, t1/2 (terminal half life), F (bioavailability), MRT (mean residence time) and CL (clearance), using a validated pharmacokinetic calculation programme.
Since the substance quantification is performed in plasma, it is necessary to determine the blood/plasma distribution of the substance in order to be able to adjust the pharmacokinetic parameters correspondingly. For this purpose, a defined amount of substance is incubated in heparinized whole blood of the species in question in a rocking roller mixer for 20 min. After centrifugation at 1000 g, the plasma concentration is measured (by means of LC-MS/MS; see above) and determined by calculating the ratio of the Cblood/Cplasma value.

Compound `C[C@@]1(C(F)(F)F)C(=O)Nc2nc(-c3nn(Cc4ncccc4F)c4ncc(F)cc34)nc(NCCC(F)(F)F)c21` (single isomer, unassigned) [Example 1-1] registered an AUCnorm of 1.77 kg·h/L, a CLblood of 11.7 mL/min/kg and an F of 98.8%. Besides, for the setting “male, Wistar, rat, plasma”, the mean residence time MRT (as a rule, the average time that molecules of a dose stay in the body) was determined as 6.6 h and the half-life – broadly, the time in which the quantity being followed falls by half – is 5.9 h.
